In data set [1] the test system is Zika virus Malaysia P 6-740. Nature of the data set: CPE reduction assay (neutral red uptake). The note with it: Zika virus. Format: cell-based. On the procedure:
(§1) The compounds were administered at a range of concentrations up to 100 μg/ml. Compounds were prepared in MEM just prior to testing. Inhibition of virus replication was determined by microscopic examination of the infected cells for cytopathic effect, increase of neutral red (NR) dye uptake (colorimetric determination), and virus yield reduction. Uninfected cells treated with a compound were assayed as above for cytotoxicity control. The EC50, EC90 and SI (selectivity index) values were determined in Vero76, Huh7 and RD cells as analyzed by the neutral red uptake dye assay and virus yield reduction assays. The results are presented from 3 or more independent experiments (standard deviations not shown. Three Zika virus strains were used in this in vitro study, Malaysia strain P 6-740, Uganda strain MR-766 and Puerto Rico strain PRVABC-59. Cells were maintained under standard conditions.

Data set [2] has as its system Zika virus Puerto Rico PRVABC59. Nature of the data set: CPE reduction assay (neutral red uptake). Conditions: Zika virus. Format: cell-based. On the procedure: as §1
In data set [3] the test system is Zika virus Uganda MR 766. Nature of the data set: CPE reduction assay (neutral red uptake). The format is cell-based. The note with it: Zika virus. Here is the method: as §1
Data set [4] deals with Zika virus Malaysia P 6-740. Kind of data set: Virus yield reduction (VYR) assay. The format is cell-based. Conditions: Zika virus. On the procedure:
as §1

Data set [5] relates to Zika virus Puerto Rico PRVABC59. Kind of data set: Virus yield reduction (VYR) assay. The format is cell-based. Conditions: Zika virus. On the procedure:
as §1

The test system of data set [6] is Zika virus Uganda MR 766. Nature of the data set: Virus yield reduction (VYR) assay. The format is cell-based. The note with it: Zika virus. Here is the method:
as §1

For data set [7], the system named is Zika virus (Malaysia, strain P 6-740). Nature of the data set: Murine Zika virus model, treatment begun 4 h before infection (Example 3). The note with it: for percentage weight change vs placebo: FIG. 6; for relative virus levels vs placebo: FIG. 7; for survival vs placebo: none surviving past day 20. On the procedure: The agents used in this experiment were compound A (the compound of formula I, where A is NH2 and B is H as the HCL salt) and ribavirin. Compound A was administered IM at 150 mg/kg/day and 300 mg/kg/day, each in a volume of 0.05 ml saline and ribavirin was administered IP at 75 mg/kg/day and 50 mg/kg/day, each in a volume of 0.1 ml saline. IM or IP administration of the daily dose was accomplished in two IM/IP injections of one-half the daily dose each. Mice were administered the first dose of Compound A and ribavirin 4 hours prior to infection with Zika virus and continued the treatment for 8 days post-infection.
In this experiment, Zika virus (Malaysia, strain P 6-740) was administered at a challenge dose of 100 CCID50 (10^3 pfu) per mouse via subcutaneous injection in a 0.1 ml volume.
Mice were monitored for survival 28 days post-virus challenge. Weight change for individual mice were taken on day 0 and every other day through the end of the experiments. Mice were observed daily for signs of disease including conjunctivitis, hunching, and limb weakness or paralysis.
For Zika virus infection and antiviral treatment studies, mice were randomly assigned to groups of 10 animals each. A 10^-3 dilution (10^4.0 pfu/mL) of the virus was prepared in MEM. Mice were challenged s.c. with 0.1 mL of the diluted virus (˜10^3.0 pfu/animal). All compound dosages were based on an average mouse weight of 22 g. Compounds were prepared in sterile saline less than 18 hours prior to initial administration in mice and stored at 4° C. for the duration of the study. Compound A was administered i.m., twice daily (bid) at 300 or 150 mg/kg/d. Ribavirin was given i.p., bid at 75 or 50 mg/kg/d. Treatments began 4 hours prior to virus challenge and continued for 8 days. The identity of the treatment groups was blinded to the technician administering treatments. Mortality was observed twice daily for 28 days, and the weight of each mouse was recorded on day 0 and then every other day from 1-19 days post-virus infection (dpi). Mice were humanely euthanized if they could no longer right themselves or were unresponsive to stimuli.
Fifty to 100 mg of freshly isolated tissue was ground with a pestle in 1 mL TRI Reagent (Sigma-Aldrich, St. Louis, MO) and total RNA was extracted. For the extraction of viral RNA from liquid samples, QlAamp Viral RNA Mini Spin kit was used according to the manufactures instructions (Qiagen, Valencia, CA). Extracted RNA was eluted with nuclease-free water and was amplified by a quantitative real-time RT-PCR using the Logix Smart Zika Test developed by Co-Diagnostics, Inc. (Bountiful, UT). Five μL of the master mix containing a set of primers and Rapid Probe, labeled with a FAM fluorophore and DABCYL quencher, was mixed with 2-5 μL of RNA and an appropriate volume of water for a final reaction volume of 10 μl. RNA was first reverse transcribed for 10 minutes at 55° C., followed by strand separation by heating to 95° C. for 20 seconds. The PCR reaction consisted of 40 cycles at 95° C. for 1 second and 55° C. for 20 seconds. A standard curve was generated with a synthetic RNA spanning the region of amplification and it was used to calculate the number of genome equivalents of the unknown samples.

In data set [8] the test system is Zika virus. Kind of data set: Virus yield reduction curves (FIGS. 1E-1G), strain not stated. The format is cell-based. Here is the method:
as §1

Data set [9] can be described thus: Phase 1 study of intramuscular injection in healthy human subjects (Example 8). Format: in vivo. Conditions: Compound A 4 mg/kg IM with lidocaine. On the procedure: A phase 1 double-blind, placebo-controlled, dose-ranging study was conducted to evaluate the safety, tolerability, and pharmacokinetics of Compound A administered by intramuscular injection (IM) in healthy human subjects. The study was conducted in two parts. In part 1, subjects received a single dose of Compound A at doses from 0.3 mg/kg to 10 mg/kg via IM administration. Additionally, the effect of lidocaine administration (co-administered with Compound A at a dose of 4 mg/kg) on alleviation of pain associated with injection was also evaluated. In part 2, subjects received Compound A for 7 days (q.d.) at doses of 2.5 mg/kg/day, 5 mg/kg/day or 10 mg/kg/day via IM administration. 50 subjects received single doses of Compound A in part 1 (12 subjects received placebo) and 23 subjects received multiple doses of Compound A in part 2 (6 subjects received placebo). All planned cohorts were completed.
Eligible subjects were adults of either sex ages 18 to 50. […]
The plasma concentration time profile of Compound A was determined for each subject in part 2 (results expressed as ng/ml Compound A). Blood samples were taken on Day 1 prior to administration of the first dose and at 1, 2, 3, 4, 6, 8, 10, 12, 16 and 24 hours after administration of the first dose of Compound A and on Day 7 prior to administration of the last dose of Compound A and at 1, 2, 3, 4, 6, 8, 10, 12, 16, 24, 36, 48, 72 and 96 hours after administration of the last dose of Compound A. Plasma samples were obtained from the blood samples and the concentration of Compound A determined.

These results are taken from patent publication US11975003B2, “Methods and compositions for treatment of Zika virus infection” (priority 2016, dated 2024).

≈ marks a conversion by molar mass, not a printed value. Where two headings read alike, the source gives them in different places.

On to `NC(=O)c1ncn([C@@H]2O[C@H](CO)[C@@H](O)[C@H]2O)n1` [Ribavirin, reference compound], for which the EC50 in [1] (Huh-7 cells) was determined as 7.2 ± 2.8 µg/mL (≈ 29.5 µM); in [1] (Vero 76, Vero76 cells), 143 ± 85 µg/mL (≈ 586 µM); in data set [2] (Vero 76, read-out: CPE red. assay EC50), 23 ± 16.8 µg/mL (≈ 94.2 µM); in data set [2] (Puerto Rico PRVABC59, Huh-7 cells, read-out: CPE red. assay EC50), 3.8 ± 1.6 µg/mL (≈ 15.6 µM); in data set [2] (Puerto Rico PRVABC59, RD cells, read-out: CPE red. assay EC50) it was 10 ± 6 µg/mL (≈ 40.9 µM); in data set [3] (Huh-7 cells) it was 8.9 ± 7.9 µg/mL (≈ 36.4 µM). The EC50 in data set [3] (RD cells) was found to be 9.3 ± 5.2 µg/mL (≈ 38.1 µM); in [3] (Vero 76, Vero76 cells), 85 ± 77.9 µg/mL (≈ 348 µM). Further, the EC90 was 13.1 ± 0.5 µg/mL (≈ 53.6 µM) in [4] (Huh-7 cells); 195 ± 63.6 µg/mL (≈ 799 µM) in data set [4] (Vero 76, Vero76 cells); no less than 281 µg/mL in data set [5] (Vero 76, read-out: VYR assay EC90); 10.4 ± 0.8 µg/mL (≈ 42.6 µM) in data set [5] (Puerto Rico PRVABC59, Huh-7 cells, read-out: VYR assay EC90); 46.3 ± 8.6 µg/mL (≈ 190 µM) in [5] (Puerto Rico PRVABC59, RD cells, read-out: VYR assay EC90); 9.52 ± 2.1 µg/mL (≈ 39 µM) in data set [6] (Huh-7 cells). The EC90 in data set [6] (RD cells) came to 13.2 ± 1.7 µg/mL (≈ 54.1 µM); in [6] (Vero 76, Vero76 cells) it was 198 ± 172 µg/mL (≈ 811 µM). Also, the “percentage weight change vs placebo” value in data set [7] (50 mg/kg/day IP (group 7)) and in data set [7] (75 mg/kg/day IP (group 5)) was “no significant improvement” in each case. The “relative virus levels vs placebo” value in data set [7] (50 mg/kg/day IP (group 7)) and in data set [7] (75 mg/kg/day IP (group 5)) was “failed to decrease relative virus levels” each time. Moreover, the survival vs placebo result was “did not increase the survival” in [7] (50 mg/kg/day IP bid x 8 days, begun -4 h (group 7)) and “did not increase the survival” in data set [7] (75 mg/kg/day IP bid x 8 days, begun -4 h (group 5)). Besides, in data set [7] (75 mg/kg/day IP, sham infection), the “weight change in sham-infected mice at day 19” value is “no significant weight change”. Also, the “antiviral activity in virus yield reduction” value was “confirmed the antiviral activity” in [8] (Huh-7 cells, FIG. 1F) and “confirmed the antiviral activity” in [8] (RD cells, FIG. 1G). Further, the “activity in VYR studies” value in data set [8] (Vero76 cells, FIG. 1E) is “not active”.
For the compound `CCN(CC)CC(=O)Nc1c(C)cccc1C` [lidocaine, reference compound], the “injection site pain on co-administration with Compound A” value in [9] was “ameliorate injection site pain”.
